Assay results taken from patent publication EP1285920A1, “C10 Ester sustituted taxanes as antitumor agents” (Florida State University Research Foundation, Inc., priority 2001, dated 2003).

Legend:
[1] = system: MX-1 human breast carcinoma; format: in vivo
Method: (§1) Antitumor compounds were administered orally in a study to investigate whether such a formulation is efficacious against the MX-1 human breast carcinoma xenograft. Antitumor compound 0499 was formulated as Solution 1 in Example 6. Antitumor compound 0550 was formulated as Solution 2 in Example 6. Antitumor compound 0611 was formulated as Solution 3 in Example 6. Antitumor compound 0748 was formulated as Solution 4 in Example 6. Other antitumor compounds were formulated similarly. The compounds were prepared in a vehicle of 90% saline, 5% Cremophor, and 5% ethanol.
(§2) Female nu/nu mice (11-12 weeks of age; implanted subcutaneously with 1 mm^3 MX-1 human breast carcinoma fragments in the flank) were sorted into one control group (n=10) and four treatment (n=6) groups (group mean tumor size of 47-49 mg). The study was terminated on Day 63.

blood cell populations = assay: Effect of oral treatment on blood cell populations and body weight in the MX-1 study (Example 22); format: in vivo, nu/nu mice; settings: mg/kg: 0499 80, 0550 73, 0611 113, 0748 200
Method: as §1, §2
In addition to survival and tumor regression responses, the effect of treatment on blood cell populations was assessed. The major effect of these antitumor compounds on blood cell populations was a marked reduction in the neutrophil cell number. As well, monocyte depletion correlated fairly well with neutrophil reduction for each antitumor compound. […] There was a correlation between antitumor activity and reduced neutrophil count. In general, toxicity (as determined by neutrophil depletion) and weight loss correlated with efficacy. […] Importantly, the toxicities observed with the very efficacious antitumor compounds were manageable and reversible; neutrophil count and body weight rebounded from their low points in just a few days. Table 20 summarizes the weight reduction, neutrophil and monocyte measurements on Day 4, with tumor weight reduction calculated at Day 18: Table 20

[2] = number of mice, single oral bolus Day 1, mg/kg: 0499 80, 0550 73, 0611 113, 0748 200, 6 mice/group, Day 63
[3] = Day 4, vs vehicle, single oral bolus

`CCC(=O)O[C@H]1C(=O)[C@@]2(C)[C@H]([C@H](OC(=O)c3ccccc3)[C@]3(O)C[C@H](OC(=O)[C@H](O)[C@H](C=C(C)C)NC(=O)OC(C)(C)C)C(C)=C1C3(C)C)[C@]1(OC(C)=O)CO[C@@H]1C[C@@H]2O` [Compound 0499] was tested, and the complete tumor regressions ([1]; MX-1, single oral bolus Day 1, six mice per group (0611: five evaluable), ended Day 63) was “two”, the “Mean Day of Survival (n)” value ([1]; days until tumor reached 1.5 g, single oral bolus Day 1, mg/kg: 0499 80, 0550 73, 0611 113, 0748 200, 6 mice/group, terminated Day 63) was 56.6 ± 2.1 (3) and the “Toxic Deaths” value ([1]; number of mice, single oral bolus Day 1, mg/kg: 0499 80, 0550 73, 0611 113, 0748 200, 6 mice/group) was 0. The “Complete Response” value [1, 2] was 2, the “Partial Response” value [1, 2] was 0 and the “Stable Disease” value [1, 2] was 1. For the same compound, the “% Reduction (Weight)” value ([1]; po, 432 h) was 100.0%, the “% Reduction (Monocytes)” value (blood cell populations; [3]) was 24.0% and the “% Reduction (Neutrophils)” value (blood cell populations; [3]) was 91.6%. The “Monocytes (K/µL)” value (blood cell populations; Day 4, single oral bolus Day 1) was 0.073 K/µL, the “Neutrophils (K/µL)” value (blood cell populations; Day 4, single oral bolus Day 1) was 0.077 K/µL and the “Maximum Weight Loss (Day)” value (blood cell populations; body weight, day of maximum in parentheses in the cell, single oral bolus Day 1) was -11.4% (7).
